From US11904057B2, “Nanoparticle-hydrogel composite for nucleic acid molecule delivery” (The United States of America, as represented by the …, priority 2018, dated 2024)

How the values were obtained:
H2052 cells [1] = experiment: Specificity of endocytosis inhibitors (Transferrin / Dextran uptake, flow cytometry); type: cell-based, human; conditions: Transferrin and Dextran (70 kD) markers, 1 h
Method: FIGS. 10A-10D. Determining the effect of chemical inhibitors on endocytic uptake of Transferrin and Dextran (70 kD), the markers for clathrin-dependent and macropinocytic pathways, in H2052 human mesothelioma cells. Flow cytometric histograms of cells treated with (FIG. 10A) Rhodamine-labeled Transferrin for 1 h in presence or absence of Cytochalasin D, Dynasore, EIPA and cells treated (FIG. 10B) with Rhodamine-labeled Transferrin for 1 h in presence or absence of Cytochalasin D, Dynasore, EIPA. Flow cytometric histograms of cells (FIG. 10C) treated with FITC-labeled Dextran and cells treated with FITC-labeled Dextran (FIG. 10D) for 1 h in presence or absence of Nystatin.
Flow cytometry. In vitro miRNA transfection efficiency of nanoparticles was determined using human mesothelioma cell H2052 (ATCC). For flow cytometry, 1.2×10^5 cells were seeded on 6 well plate 24 h before treatment and allowed to grow under normal culture conditions. FAM (6-carboxyfluorescein, 5′ end)-labeled scrambled miRNA (Thermo Fisher) was complexed with Peptide 1 in a 10:1 N/P ratio according to the protocol described above. Nanoparticles obtained were diluted with optiMEM (Thermo Fisher) to maintain a final miRNA concentration of 40 nM. Complexes of commercial transfection agents (In vivo jet PEI, Polyplus-transfection and DharmaFECT, Dharmacon) and equivalent amount of miRNA were prepared according to manufacturers' instruction. […] To determine the specificity of the inhibitors towards each endocytic pathway in H2052 cells, cellular internalization of Rhodamine or FITC-labeled Transferrin (marker for clathrin mediated uptake, Thermo Fisher) and Rhodamine or FITC-labeled Dextran (70 kD, marker for micropinocytosis, Thermo Fisher) in presence and absence of inhibitors were analyzed with flow cytometry. […] Median fluorescence intensity (MFI) for gated live cell population was determined for cells treated with each inhibitor and normalized with respect to the sample without inhibitor treatment.

[2] = tested on: FAM-labeled scrambled miRNA; experiment: Fluorescence-based binding assay between peptides and miRNA; conditions: 30 nM FAM-miRNA; peptide vs miRNA molar ratio 0.3125 to 1000; complexed in water, diluted with 25 mM HEPES pH 7.4
Method: Binding interactions among peptides and miRNA were studied using a fluorescence measurement. Scrambled miRNA (sequence mismatched with all possible mRNAs in human) labeled with FAM (6-carboxyfluorescein, 5′ end) was mixed with peptides having peptide vs miRNA molar ratio ranging from 0.3125 to 1000. Complexation was first performed in water, followed by dilution of the complex with HEPES (25 mM HEPES, pH 7.4) to keep pH of the suspension unaltered across all peptide concentrations. With increasing mole ratio, FAM fluorescence gradually gets quenched resulting from peptide-mediated condensation. […] Concentrations of Peptide 1 to induce maximum quenching were close to a molar ratio of 50:1 between Peptide 1 and miRNA which corresponds to an N/P ratio (charge ratio) of 10:1. Accordingly, a ratio of 10:1 as the N/P ratio was used for further assessment.
Fluorescence-based binding assay was used to determine interaction between peptides and miRNA. […] FAM fluorophore on miRNA was excited at 490 nm and emission at 520 nm was recorded using a microplate reader (Tecan Infinite 200) with a band-pass filter of 20 nm. A PTI fluorimeter was used to record fluorescence spectrum for Peptide 1/miRNA nanoparticles at N/P ratio 10:1 (molar ratio of 50:1, Peptide 1 vs miRNA) in the emission range of 500-700 nm.

[3] = Circular dichroism spectroscopy of Peptide 1 with miRNA / heparin; type: physicochemical
Method: Circular Dichroism Spectroscopy. Secondary structure of Peptide 1 in presence or absence of added miRNA was determined using Circular Dichroism (CD) spectroscopy. For recording CD spectra in water, 150 μL from the aqueous solutions of Peptide 1 was mixed with 150 μL of an aqueous solution of scrambled miRNA to maintain peptide vs miRNA N/P ratios at 10:1, 5:1, 2:1 and 1:1. These N/P ratios correspond to peptide vs miRNA mole ratios of 50:1, 25:1, 10:[…], respectively. Nanoparticles and soluble peptides of 300 μL total volume were equilibrated for 30 min at 37° C. with agitation. Final concentration of miRNA was maintained at 5 μM. Samples were transferred into a quartz cell of path-length 1 mm and data collection were initiated immediately. Ellipticity was measured over a wavelength range of 190-260 nm at 37° C., using 1 nm step size and a set of 3-5 scans. Raw data was corrected by subtracting the absorbance of samples from those of miRNA and converted to mean residue ellipticity using the equation: [θ]=θobs/(10*l*c*r) where θobs is the measured ellipticity (mdeg), l is the path length (0.1 cm), c is the concentration of peptide (determined from UV absorbance at 220 nm) and r corresponds to the number of amino acid residues in the peptide. […]

[4] = Hydrogel composite formation with different hydrogelating peptides; type: physicochemical; conditions: 24 h post-assembly, irrespective of nanoparticle loaded
Method: Preparation and characterization of hydrogel composites. Required amount of miRNA was diluted in water and mixed with an aqueous solution of Peptide 1 in a 10:1 N/P ratio to maintain a final volume of 25 μL. The suspension was incubated for 30 min at 37° C. with constant agitation and the resulting nanoparticles were mixed with 25 μL of chilled 2×HBS (50 mM HEPES 300 mM NaCl, pH 7.4). 50 μL of 1% (w/v) solution of a hydrogelating peptide (Peptides 1, 2, 3 and 4) was prepared in a chilled 25 mM HEPES (pH 7.4), mixed with an equal volume of nanoparticle suspension and incubated at 37° C. for overnight to afford 0.5 wt % hydrogel composites. Gel composites containing 1% of hydrogelating peptide was also prepared similarly. For Transmission Electron Microscopy of gel composites, ˜4 μL of the sample was deposited onto 200 mesh carbon coated copper grids and allowed to adhere for 30 seconds. The excess sample was removed with a filter paper. Uranyl acetate (5 μL) was used to stain the grids for 30 seconds. Grids were dried for 2-3 minutes. Images were acquired using a Tecnai T12 transmission electron microscope.

H2052 cells [5] = experiment: LDH cytotoxicity assay; type: cell-based, human; conditions: 4 h post-incubation
Method: LDH assay kit (Roche) was used to determine any possible cytotoxicity of Peptide 1/miRNA nanoparticles and soluble Peptide 1. Cell supernatant was taken out after 4 h of treatment and a reaction mixture containing diaphorase/NAD+/iodotetrazolium chloride/sodium lactate was added following manufacturer's instructions to detect any released LDH (Lactate Dehydrogenase). Triton X-100 at a final concentration was used as a high control for maximal releasable LDH, while untreated cells were taken as low control for spontaneous LDH release. Absorbance was measured at 490 nm after 5 minutes of incubation at 37° C. Cytotoxicity was calculated using the equation: (Absorbance^treated−Absorbance^low control/Absorbance^high control−Absorbance^low control)×100.

| Molecule | Endocytic pathway inhibited (H2052 cells [1]) | Extent of quenching of FAM fluorescence (peptide-mediated condensation of miRNA) [2] | other results |
| --- | --- | --- | --- |
| O=C(N/N=C/c1ccc(O)c(O)c1)c1cc2ccccc2cc1O [Dynasore] | inhibitors for clathrin-dependent pathways | – | – |
| C=C1[C@@H](C)[C@H]2[C@H](Cc3ccccc3)NC(=O)[C@]23[C@H](OC(C)=O)/C=C/[C@@](C)(O)C(=O)[C@@H](C)C/C=C/[C@H]3[C@@H]1O [Cytochalasin D] | inhibitors for clathrin-dependent pathways | – | – |
| VLTKVKTKV^DPPTKVEVKVLV-NH2 [Peptide 3] | – | not able to promote significant condensation of miRNA | – |
| CCN(c1nc(N)c(C(=O)NC(=N)N)nc1Cl)C(C)C [EIPA] | selective inhibitor of micropinocytosis | – | – |
| VKVKVKVKV^DPPTKVKVKVKV-NH2 [Peptide 1] | – | maximal | Folding into a β-hairpin structure in the nanoparticles ([3]; N/P ratio 10:1, water): not enough to induce any significant folding; Heparin concentration at which evolution of β-sheet structure starts ([3]; Peptide 1 complexed with miRNA at N/P 10:1, water, 37° C.): 50 µg/mL; Formation of gel-like material when used as self-assembling peptide [4]: does not form a gel-like material; Cytotoxicity as compared to positive control Triton X-100 (H2052 cells [5]): 20% |
